As usually defined, the IC50 is the concentration that gives 50% inhibition. Broadly, the AC50 is the concentration giving half of the maximal activity seen. The term EC50 denotes the midpoint of the concentration-response curve.

Data on four molecules can be found in ChEMBL document CHEMBL1201862, “PubChem BioAssay data set” (2004).

Data set [1] has as its target Phosphomannomutase 2 (Homo sapiens, UniProt O15305). Kind of data set: Counter screen SAR assay for PMM2 inhibitors via a fluorescence intensity assay. [Related pubchem assays (depositor defined):AID1545, AID1574].
Data set [2] deals with Phosphoethanolamine/phosphocholine phosphatase (Homo sapiens, UniProt Q8TCT1). Kind of data set: SAR assay for compounds that inhibit PHOSPHO1. [Related pubchem assays (depositor defined):AID1545, AID1565, AID1574].
Phosphoethanolamine/phosphocholine phosphatase, sequence (Q8TCT1 whole entry): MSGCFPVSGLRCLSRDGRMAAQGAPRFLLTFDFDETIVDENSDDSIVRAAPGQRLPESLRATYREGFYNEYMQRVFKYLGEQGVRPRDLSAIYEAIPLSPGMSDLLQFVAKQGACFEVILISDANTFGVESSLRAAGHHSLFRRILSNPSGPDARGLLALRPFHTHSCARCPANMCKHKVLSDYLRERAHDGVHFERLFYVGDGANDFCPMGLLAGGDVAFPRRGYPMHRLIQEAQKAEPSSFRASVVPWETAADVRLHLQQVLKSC
In data set [3] the target is T1, Mannose-6-phosphate isomerase (Homo sapiens, UniProt P34949).
T1 sequence (P34949 whole entry): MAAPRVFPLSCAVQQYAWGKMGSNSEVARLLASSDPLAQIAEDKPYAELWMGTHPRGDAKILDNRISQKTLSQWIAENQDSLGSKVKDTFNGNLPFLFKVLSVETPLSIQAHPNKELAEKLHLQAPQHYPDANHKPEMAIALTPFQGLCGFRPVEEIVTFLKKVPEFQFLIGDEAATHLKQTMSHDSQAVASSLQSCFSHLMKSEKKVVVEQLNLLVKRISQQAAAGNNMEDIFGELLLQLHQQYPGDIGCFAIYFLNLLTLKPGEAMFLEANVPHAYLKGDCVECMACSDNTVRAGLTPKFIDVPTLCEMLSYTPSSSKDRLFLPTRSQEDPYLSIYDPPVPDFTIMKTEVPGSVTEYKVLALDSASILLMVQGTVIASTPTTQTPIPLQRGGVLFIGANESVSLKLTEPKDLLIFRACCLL
Kind of data set: phosphomannose isomerase inhibition – biochemical, fluorescence intensity, confirmation (AID 1535).

Data set [4] deals with CAAX prenyl protease 1 (Saccharomyces cerevisiae S288c, UniProt P47154). Briefly: yeast CAAX protease Ste24 inhibition – biochemical, S. cerevisiae, plate reader, cherry-pick, dose response (AID 488815).
CAAX prenyl protease 1, sequence (P47154 whole entry): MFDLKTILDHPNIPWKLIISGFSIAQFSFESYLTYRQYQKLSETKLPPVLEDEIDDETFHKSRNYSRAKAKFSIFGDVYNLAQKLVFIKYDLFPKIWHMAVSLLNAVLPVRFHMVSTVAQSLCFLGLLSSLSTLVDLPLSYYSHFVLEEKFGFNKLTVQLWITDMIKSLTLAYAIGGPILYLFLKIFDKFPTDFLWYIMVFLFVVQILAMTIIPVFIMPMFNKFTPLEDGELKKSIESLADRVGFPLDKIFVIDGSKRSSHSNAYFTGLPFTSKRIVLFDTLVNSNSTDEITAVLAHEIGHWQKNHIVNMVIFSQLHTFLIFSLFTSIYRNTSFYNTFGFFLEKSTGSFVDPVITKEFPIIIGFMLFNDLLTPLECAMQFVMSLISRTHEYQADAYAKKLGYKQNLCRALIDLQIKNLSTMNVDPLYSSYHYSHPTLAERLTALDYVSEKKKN
Data set [5] addresses Trypsin (Sus scrofa, UniProt P00761). Kind of data set: trypsin protease activity blockade – biochemical, quenched peptide fluorescence, cherry-pick, selectivity assay for Rce1 protease inhibitor project, dose response (AID 488789).
Data set [6] deals with T2, Histone-lysine N-methyltransferase NSD2 (Homo sapiens, UniProt O96028).
T2 sequence (O96028 whole entry): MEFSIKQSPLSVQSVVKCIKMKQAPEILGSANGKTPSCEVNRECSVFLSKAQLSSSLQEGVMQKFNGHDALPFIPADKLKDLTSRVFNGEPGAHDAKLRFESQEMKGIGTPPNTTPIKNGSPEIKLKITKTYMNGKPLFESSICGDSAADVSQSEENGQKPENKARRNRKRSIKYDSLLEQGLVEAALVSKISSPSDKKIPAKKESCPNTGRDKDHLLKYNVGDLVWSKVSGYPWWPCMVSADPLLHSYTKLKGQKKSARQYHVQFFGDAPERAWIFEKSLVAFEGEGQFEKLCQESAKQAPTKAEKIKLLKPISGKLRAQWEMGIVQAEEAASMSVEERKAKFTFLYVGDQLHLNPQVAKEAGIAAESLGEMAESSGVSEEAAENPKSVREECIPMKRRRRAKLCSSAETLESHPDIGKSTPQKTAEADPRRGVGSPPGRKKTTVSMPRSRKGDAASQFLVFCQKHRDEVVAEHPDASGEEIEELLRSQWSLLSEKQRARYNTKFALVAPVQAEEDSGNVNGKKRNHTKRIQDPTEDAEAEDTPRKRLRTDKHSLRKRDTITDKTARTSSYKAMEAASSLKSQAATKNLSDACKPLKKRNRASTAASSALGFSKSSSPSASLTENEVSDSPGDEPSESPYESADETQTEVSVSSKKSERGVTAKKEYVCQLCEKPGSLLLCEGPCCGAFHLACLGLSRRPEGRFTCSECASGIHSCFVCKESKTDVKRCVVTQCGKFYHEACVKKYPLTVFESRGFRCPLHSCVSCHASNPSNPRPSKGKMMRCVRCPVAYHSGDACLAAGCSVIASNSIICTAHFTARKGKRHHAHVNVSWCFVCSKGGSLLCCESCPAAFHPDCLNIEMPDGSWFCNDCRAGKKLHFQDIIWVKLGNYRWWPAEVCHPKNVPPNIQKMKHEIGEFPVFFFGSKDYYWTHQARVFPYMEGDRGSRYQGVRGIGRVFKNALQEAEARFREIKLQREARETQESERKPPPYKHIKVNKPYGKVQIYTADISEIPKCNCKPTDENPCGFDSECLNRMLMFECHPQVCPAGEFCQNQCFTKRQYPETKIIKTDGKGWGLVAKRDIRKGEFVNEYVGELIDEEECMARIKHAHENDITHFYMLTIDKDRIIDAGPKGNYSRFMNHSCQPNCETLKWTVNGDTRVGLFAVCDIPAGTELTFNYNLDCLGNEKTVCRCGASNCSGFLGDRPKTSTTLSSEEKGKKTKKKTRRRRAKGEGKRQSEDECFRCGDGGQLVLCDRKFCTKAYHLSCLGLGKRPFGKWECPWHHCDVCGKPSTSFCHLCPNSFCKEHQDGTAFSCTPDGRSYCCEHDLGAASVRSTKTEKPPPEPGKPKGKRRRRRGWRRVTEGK
It is filed as biochemical.

For data set [7], the target named is Cytochrome P450 3A4 (Homo sapiens, UniProt P08684).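 Note: CYP3A4 tested as one member of a cytochrome P450 panel screen.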
Cytochrome P450 3A4, sequence (P08684 whole entry): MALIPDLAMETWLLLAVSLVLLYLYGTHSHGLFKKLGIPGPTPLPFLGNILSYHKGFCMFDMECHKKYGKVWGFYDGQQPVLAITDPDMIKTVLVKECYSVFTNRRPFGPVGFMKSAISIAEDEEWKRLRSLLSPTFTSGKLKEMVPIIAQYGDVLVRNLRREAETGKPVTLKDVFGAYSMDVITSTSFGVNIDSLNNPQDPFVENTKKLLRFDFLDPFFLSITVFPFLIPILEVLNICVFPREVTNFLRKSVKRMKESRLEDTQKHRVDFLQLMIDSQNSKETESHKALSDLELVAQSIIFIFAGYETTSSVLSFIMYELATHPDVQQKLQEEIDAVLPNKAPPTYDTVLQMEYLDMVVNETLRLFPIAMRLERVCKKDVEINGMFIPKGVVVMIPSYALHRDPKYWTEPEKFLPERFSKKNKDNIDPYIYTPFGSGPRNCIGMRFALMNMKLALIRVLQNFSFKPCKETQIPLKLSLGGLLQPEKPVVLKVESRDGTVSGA
The target of data set [8] is Cytochrome P450 2D6 (Homo sapiens, UniProt P10635).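 Note: CYP2D6 member of a cytochrome P450 panel assay.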
Cytochrome P450 2D6, sequence (P10635 whole entry): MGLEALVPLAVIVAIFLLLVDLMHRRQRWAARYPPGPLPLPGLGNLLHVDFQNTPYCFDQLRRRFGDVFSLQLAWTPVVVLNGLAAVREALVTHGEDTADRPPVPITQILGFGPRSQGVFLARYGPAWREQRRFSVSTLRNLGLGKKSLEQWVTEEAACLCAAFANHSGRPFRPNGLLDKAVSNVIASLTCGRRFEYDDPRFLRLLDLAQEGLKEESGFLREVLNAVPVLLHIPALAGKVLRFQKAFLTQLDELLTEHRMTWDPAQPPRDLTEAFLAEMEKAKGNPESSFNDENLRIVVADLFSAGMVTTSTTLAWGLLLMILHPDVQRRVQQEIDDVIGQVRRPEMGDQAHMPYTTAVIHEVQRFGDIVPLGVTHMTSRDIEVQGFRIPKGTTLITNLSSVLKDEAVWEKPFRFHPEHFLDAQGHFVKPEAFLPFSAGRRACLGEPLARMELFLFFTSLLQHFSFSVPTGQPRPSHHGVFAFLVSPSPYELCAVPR
The target in data set [9] is Cytochrome P450 2C9 (Homo sapiens, UniProt P11712).
Cytochrome P450 2C9, sequence (P11712 whole entry): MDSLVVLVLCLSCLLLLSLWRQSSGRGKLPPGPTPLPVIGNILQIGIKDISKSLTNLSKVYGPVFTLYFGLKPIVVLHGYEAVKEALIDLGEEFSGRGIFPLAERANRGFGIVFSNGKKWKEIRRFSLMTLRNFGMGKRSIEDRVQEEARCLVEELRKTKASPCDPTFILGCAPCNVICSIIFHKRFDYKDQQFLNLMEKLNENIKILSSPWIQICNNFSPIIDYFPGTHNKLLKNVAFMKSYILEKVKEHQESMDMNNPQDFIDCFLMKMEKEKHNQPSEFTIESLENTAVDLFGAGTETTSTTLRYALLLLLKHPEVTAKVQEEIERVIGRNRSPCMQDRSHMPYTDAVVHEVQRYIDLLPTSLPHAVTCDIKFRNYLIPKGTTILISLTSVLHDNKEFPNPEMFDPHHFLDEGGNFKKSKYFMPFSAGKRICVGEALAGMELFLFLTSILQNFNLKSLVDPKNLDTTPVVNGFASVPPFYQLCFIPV
The target of data set [10] is T3, Replicative DNA helicase DnaB (Mycobacterium tuberculosis, UniProt P9WMR3).
T3 sequence (P9WMR3 whole entry): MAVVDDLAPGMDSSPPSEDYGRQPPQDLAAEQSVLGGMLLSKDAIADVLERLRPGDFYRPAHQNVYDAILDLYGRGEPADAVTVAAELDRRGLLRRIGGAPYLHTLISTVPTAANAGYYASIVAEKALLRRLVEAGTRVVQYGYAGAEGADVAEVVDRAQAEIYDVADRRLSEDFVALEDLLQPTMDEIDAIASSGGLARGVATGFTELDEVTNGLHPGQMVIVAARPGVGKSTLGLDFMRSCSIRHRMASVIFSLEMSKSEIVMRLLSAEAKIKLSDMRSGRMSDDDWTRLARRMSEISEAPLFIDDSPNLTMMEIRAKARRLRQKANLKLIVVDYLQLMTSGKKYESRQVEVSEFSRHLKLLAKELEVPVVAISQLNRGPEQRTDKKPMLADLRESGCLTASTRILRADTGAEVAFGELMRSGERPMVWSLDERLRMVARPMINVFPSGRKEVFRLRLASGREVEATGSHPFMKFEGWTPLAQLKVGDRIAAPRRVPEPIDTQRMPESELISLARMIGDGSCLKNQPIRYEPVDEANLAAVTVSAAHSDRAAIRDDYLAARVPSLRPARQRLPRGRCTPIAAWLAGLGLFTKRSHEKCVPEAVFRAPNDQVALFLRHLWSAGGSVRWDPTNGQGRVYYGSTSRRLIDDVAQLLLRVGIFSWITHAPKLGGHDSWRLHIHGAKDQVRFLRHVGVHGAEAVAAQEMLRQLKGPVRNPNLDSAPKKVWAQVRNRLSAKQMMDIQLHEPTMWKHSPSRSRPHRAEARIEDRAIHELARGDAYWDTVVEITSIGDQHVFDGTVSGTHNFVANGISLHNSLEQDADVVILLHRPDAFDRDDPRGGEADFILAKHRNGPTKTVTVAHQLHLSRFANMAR
Kind of data set: DnaB intein splicing inhibitors, dose response, biochemical, cell-free fluorescence (AID 449749). It is filed as functional.

The target in data set [11] is T4, Intestinal-type alkaline phosphatase (Homo sapiens, UniProt P09923). Briefly: human intestinal alkaline phosphatase activators, dose response, biochemical, luminescence, uHTS hits (AID 463120). In kind it is functional.
T4 sequence (P09923 whole entry): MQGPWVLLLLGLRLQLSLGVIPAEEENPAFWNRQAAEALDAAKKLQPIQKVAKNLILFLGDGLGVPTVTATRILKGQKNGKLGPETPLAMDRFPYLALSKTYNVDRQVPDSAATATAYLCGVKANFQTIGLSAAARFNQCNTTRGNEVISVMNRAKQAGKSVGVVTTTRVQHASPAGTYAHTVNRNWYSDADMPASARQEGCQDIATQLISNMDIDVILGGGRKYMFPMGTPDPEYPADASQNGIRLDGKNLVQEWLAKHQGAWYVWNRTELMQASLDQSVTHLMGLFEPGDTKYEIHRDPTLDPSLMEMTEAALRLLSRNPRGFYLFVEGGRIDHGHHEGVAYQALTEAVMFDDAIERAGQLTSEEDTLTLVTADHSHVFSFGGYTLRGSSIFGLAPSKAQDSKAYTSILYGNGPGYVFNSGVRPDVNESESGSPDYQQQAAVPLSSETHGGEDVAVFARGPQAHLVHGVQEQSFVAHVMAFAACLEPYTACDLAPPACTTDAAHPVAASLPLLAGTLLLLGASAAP
Data set [12] concerns the target T4, Intestinal-type alkaline phosphatase. Kind of data set: activation of human intestinal alkaline phosphatase – biochemical, luminescent, uHTS hits, set 2, dose response (AID 488817).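 Note: potency of activators that raise enzyme activity.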 In kind it is functional.
The target of data set [13] is T5, Protein RecA (Mycobacterium tuberculosis, UniProt P9WHJ3).
T5 sequence (P9WHJ3 whole entry): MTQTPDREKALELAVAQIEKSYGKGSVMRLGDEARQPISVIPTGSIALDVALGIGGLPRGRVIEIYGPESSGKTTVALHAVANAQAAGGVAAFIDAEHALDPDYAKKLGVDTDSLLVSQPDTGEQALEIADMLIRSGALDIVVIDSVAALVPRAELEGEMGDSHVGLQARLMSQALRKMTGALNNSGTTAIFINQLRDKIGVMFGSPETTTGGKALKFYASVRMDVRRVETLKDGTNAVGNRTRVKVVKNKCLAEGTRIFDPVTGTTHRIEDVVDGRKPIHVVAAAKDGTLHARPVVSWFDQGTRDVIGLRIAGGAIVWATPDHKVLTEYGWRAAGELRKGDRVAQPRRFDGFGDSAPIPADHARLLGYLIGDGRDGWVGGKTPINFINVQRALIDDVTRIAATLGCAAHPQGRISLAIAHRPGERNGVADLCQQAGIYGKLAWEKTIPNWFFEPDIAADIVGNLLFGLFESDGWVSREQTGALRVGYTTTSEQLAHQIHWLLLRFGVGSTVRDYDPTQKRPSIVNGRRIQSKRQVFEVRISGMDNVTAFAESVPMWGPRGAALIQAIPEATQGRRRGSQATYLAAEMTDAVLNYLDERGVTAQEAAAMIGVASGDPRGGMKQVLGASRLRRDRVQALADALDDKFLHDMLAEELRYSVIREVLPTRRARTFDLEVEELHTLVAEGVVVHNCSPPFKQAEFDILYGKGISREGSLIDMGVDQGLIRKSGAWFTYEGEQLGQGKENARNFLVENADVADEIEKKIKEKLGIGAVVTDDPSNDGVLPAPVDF
Kind of data set: Fluorescence Cell-Free Homogeneous Dose Retest to Identify Inhibitors of RecA-Intein Splicing Activity. [Related pubchem assays (depositor defined):AID2097, AID2223, AID489010, AID492950]. In kind it is functional.

Data set [14] has as its target T6, High affinity choline transporter 1 (Homo sapiens, UniProt Q9GZV3).
T6 sequence (Q9GZV3 whole entry): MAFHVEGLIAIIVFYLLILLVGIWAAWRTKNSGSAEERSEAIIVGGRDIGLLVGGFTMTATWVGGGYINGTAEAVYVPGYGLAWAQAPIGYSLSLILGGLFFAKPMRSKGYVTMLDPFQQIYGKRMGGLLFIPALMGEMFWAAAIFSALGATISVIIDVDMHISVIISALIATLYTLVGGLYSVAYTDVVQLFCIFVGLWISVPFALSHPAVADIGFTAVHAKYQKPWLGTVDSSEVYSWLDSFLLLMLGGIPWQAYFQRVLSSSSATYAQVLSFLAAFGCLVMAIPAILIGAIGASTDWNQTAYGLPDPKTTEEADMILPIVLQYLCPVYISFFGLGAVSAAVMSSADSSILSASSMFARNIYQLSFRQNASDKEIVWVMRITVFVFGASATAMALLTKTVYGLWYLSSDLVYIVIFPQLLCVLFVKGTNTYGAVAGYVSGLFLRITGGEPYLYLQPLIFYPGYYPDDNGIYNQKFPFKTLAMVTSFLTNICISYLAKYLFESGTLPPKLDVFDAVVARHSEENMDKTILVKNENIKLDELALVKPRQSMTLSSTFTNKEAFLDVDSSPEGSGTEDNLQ
Briefly: human choline transporter blockers, potency – cell-based, 5-point CRC, membrane potential dye, dose response (AID 504840). In kind it is functional.

The target of data set [15] is T7, Alkaline phosphatase, tissue-nonspecific isozyme (Homo sapiens, UniProt P05186).
T7 sequence (P05186 whole entry): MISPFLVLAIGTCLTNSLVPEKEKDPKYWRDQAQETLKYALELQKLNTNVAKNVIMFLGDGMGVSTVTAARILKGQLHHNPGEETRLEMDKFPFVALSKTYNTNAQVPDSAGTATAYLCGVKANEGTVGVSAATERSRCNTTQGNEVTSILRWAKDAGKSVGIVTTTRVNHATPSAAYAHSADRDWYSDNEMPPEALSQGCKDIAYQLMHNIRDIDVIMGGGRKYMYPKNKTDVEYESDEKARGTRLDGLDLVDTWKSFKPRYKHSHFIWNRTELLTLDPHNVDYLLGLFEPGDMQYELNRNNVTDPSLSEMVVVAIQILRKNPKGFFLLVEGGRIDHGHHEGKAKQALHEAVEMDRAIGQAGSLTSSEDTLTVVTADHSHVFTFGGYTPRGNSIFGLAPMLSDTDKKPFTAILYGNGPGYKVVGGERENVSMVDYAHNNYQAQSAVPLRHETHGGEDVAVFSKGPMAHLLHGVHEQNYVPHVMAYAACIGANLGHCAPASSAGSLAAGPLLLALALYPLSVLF
Briefly: activation of tissue-nonspecific alkaline phosphatase – biochemical, TNAP isozyme, human IAP uHTS hits, selectivity assay for human IAP activator project, dose response (AID 488886).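 Note: potency of compounds raising TNAP activity as a selectivity check on IAP activators.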 In kind it is functional.

The nature of data set [16]: Luminescence Cell-Based Dose Retest to Confirm Inhibitors of Cancer Stem Cells. [Related pubchem assays (depositor defined):AID2717, AID2721]. In kind it is functional. Conditions: Homo sapiens.
Data set [17] deals with Intestinal-type alkaline phosphatase (Mus musculus, UniProt P24822). Kind of data set: PubChem AID 488875. In kind it is functional.
Intestinal-type alkaline phosphatase (Mus musculus, UniProt P24822), sequence (P24822 whole entry): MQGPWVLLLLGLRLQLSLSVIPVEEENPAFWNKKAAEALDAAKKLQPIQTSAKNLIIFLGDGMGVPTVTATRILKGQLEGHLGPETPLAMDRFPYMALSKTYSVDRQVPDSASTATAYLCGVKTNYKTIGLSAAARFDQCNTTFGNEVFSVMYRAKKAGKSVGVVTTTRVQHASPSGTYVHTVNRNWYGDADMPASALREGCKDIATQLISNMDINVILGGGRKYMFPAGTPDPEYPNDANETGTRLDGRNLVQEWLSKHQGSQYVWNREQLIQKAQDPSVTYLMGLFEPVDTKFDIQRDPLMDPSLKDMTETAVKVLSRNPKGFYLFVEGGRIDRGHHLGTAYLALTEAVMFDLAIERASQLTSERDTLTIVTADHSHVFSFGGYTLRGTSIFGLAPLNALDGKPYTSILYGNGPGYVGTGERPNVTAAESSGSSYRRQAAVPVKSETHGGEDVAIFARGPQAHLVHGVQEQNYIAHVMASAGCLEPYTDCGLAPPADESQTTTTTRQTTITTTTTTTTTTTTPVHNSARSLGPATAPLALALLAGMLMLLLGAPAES

Active and inactive are the calls of the source. A value given as a limit tells only on which side of the number the result lay.

Trypsin, sequence (P00761 whole entry): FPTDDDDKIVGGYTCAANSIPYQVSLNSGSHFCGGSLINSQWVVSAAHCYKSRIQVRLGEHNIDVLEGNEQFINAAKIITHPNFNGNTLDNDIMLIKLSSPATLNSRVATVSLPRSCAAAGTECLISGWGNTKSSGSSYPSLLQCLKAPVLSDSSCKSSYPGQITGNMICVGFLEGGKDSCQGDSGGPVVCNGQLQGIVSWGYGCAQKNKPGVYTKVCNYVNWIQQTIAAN
Phosphomannomutase 2, sequence (O15305 whole entry): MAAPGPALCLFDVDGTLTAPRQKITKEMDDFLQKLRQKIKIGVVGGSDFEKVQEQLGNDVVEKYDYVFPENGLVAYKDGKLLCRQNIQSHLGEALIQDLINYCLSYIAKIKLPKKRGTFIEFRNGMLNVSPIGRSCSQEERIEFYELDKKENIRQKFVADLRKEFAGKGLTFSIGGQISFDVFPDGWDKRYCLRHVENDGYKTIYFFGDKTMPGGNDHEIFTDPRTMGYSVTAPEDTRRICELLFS

Consider `O=c1c2c(OCC(F)(F)F)cc([N+](=O)[O-])cc2sn1-c1ccc(F)cc1`, for which the IC50 in [1] is > 100 µM (inactive); in data set [2] it was 0.577 µM (active); in data set [3], 26.1 µM (active).

On to `CCN(CC)CCCNc1cc(C)nc2cc(-c3cccs3)nn12`, for which the AC50 in data set [4] is 6.24 µM (active); in data set [5], 19.4 µM (active); in [6], > 20 µM (inactive).

For `CCSc1nc(O)c2c3c(sc2n1)COC(C)(CC)C3` (configuration not stated), the AC50 entry in data set [7] is “inconclusive”; in [8], “inconclusive”; in [9], 2.82 µM (inconclusive).

`Cc1cc(C)cc(CC(Cc2nc3ccccc3[nH]2)c2nc3ccccc3[nH]2)c1` (configuration not stated): the AC50 in [10] is 8.31 µM (active); in [16], 6.69 µM (active). The EC50 in data set [11] is 65.7 µM (active); in data set [12] it was 55.6 µM (active); in data set [13], 83 µM (active); in data set [15], 69.7 µM (active); in data set [17], 26.6 µM (active). In addition, the half-inhibitory concentration (IC50) in [14] was 15.8 µM (active).
